Source: patent publication US20250136614A1, “2,7-SUBSTITUTED PYRROLO[2,1-F][1,2,4]TRIAZINE COMPOUND HAVING PROTEIN KINASE INHIBITORY ACTIVITY” (Magicbullettherapeutics Co., Ltd., priority 2021, published 2025)
Positions count from the first letter of the chain named.

Columns and labels:
Ba/F3 FLT3 (ITD) = biological target: T1, Ba/F3 FLT3 (ITD) (Homo sapiens, UniProt P36888, cells depend on it, form not given); assay: Ba/F3 cell growth inhibition (CellTiter-Glo, 72 hours); type: cell-based; details: read-out: Ba/F3 GI50s (μM) FLT3 (ITD)
T1 sequence (P36888 1-993): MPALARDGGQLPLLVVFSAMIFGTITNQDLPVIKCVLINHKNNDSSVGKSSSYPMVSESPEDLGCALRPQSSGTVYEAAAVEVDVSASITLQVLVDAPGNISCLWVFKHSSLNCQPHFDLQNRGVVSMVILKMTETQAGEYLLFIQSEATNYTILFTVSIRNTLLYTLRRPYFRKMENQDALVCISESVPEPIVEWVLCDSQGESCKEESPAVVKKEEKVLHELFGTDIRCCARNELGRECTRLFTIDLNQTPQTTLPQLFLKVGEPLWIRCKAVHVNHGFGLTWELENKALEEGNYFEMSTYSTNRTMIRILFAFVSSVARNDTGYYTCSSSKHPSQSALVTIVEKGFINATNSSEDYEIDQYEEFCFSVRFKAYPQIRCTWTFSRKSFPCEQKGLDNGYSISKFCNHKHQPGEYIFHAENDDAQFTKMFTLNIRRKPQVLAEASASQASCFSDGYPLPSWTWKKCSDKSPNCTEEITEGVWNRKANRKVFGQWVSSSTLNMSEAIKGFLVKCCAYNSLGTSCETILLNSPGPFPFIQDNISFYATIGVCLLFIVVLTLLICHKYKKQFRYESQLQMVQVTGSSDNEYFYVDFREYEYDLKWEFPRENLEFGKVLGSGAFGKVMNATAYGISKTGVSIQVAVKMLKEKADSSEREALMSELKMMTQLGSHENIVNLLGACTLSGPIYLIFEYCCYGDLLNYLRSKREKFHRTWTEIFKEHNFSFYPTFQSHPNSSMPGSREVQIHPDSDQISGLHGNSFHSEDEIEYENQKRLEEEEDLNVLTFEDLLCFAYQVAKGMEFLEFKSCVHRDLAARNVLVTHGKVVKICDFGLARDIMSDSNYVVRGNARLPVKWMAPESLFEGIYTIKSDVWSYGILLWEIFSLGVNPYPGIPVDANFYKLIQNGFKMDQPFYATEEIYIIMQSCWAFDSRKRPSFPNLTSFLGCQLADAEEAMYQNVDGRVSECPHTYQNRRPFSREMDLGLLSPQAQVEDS

[1] = biological target: T2, Ba/F3 FLT3 (ITD/D835YF691L) (Homo sapiens, UniProt P36888, F691L/D835Y, cells depend on it, form not given); assay: as above; type: cell-based; details: read-out: Ba/F3 GI50s (μM) FLT3 (ITD/D835YF691L)
T2 sequence (P36888 1-993 F691L/D835Y): T1 sequence (P36888 1-993) with F691L, D835Y

Row | GI50 (Ba/F3 FLT3 (ITD)) [µM] | GI50 [1] [µM] | SMILES
1 | < 1 | 1 to 10 | O=C1CCCCOc2ccc(cc2)-c2ccc3cnc(nn23)Nc2cnn(c2)C2CCN1CC2 [Example 25, (2^1Z,4^4E)-4^1H-11-oxa-3-aza-2(7,2)-pyrrolo[2,1-f][1,2,4]triazina-5(4,1)-piperidina-4(4,1)-pyrazola-1(1,4)-benzenacycloundecaphan-6-one]
2 | 1 to 10 | ≥ 10 | O=C1CCCCCCOc2ccc(cc2F)-c2ccc3cnc(nn23)Nc2ccc(cc2)OCCCN1 [Example 20, (Z)-13-fluoro-5,17-dioxa-3,9-diaza-2(7,2)-pyrrolo[2,1-f][1,2,4]triazina-1,4(1,4)-dibenzenacycloheptadecaphan-10-one]
3 | < 1 | 1 to 10 | O=C1CCCCCCOc2ccc(cc2)-c2ccc3cnc(nn23)Nc2ccc(cc2)OCCCN1 [Example 29, (Z)-5,17-dioxa-3,9-diaza-2(7,2)-pyrrolo[2,1-f][1,2,4]triazina-1,4(1,4)-dibenzenacycloheptadecaphan-10-one]
4 | < 1 | < 1 | O=C1CCCCCCOc2ccc(cc2)-c2ccc3cnc(nn23)Nc2cnn(c2)C2CCN(CCCN1)CC2 [Example 27, (2^1Z,4^4E)-4^1H-17-oxa-3,9-diaza-2(7,2)-pyrrolo[2,1-f1][1,2,4]triazina-5(4,1)-piperidina-4(4,1)-pyrazola-1(1,4)-benzenacycloheptadecaphan-10-one]
5 | < 1 | < 1 | CS(=O)(=O)Nc1cccc(-c2ccc3cnc(Nc4ccc(N5CCN(CCCOc6cccc7c6C(=O)N(C6CCC(=O)NC6=O)C7=O)CC5)cc4)nn23)c1 (stereo not drawn) [Example 40]
6 | < 1 | 1 to 10 | O=C1CCCCCCOc2ccc(cc2)-c2ccc3cnc(nn23)Nc2cnn(c2)CCCN1 [Example 37, (2^1Z,4^4E)-4^1H-16-oxa-3,8-diaza-2(7,2)-pyrrolo[2,1-f1][1,2,4]triazina-4(4,1)-pyrazola-1(1,4)-benzenacyclohexadecaphan-9-one]
